The values that follow come from patent US20230295096A1, “PYRAZOLE CARBOXAMIDE COMPOUNDS FOR TREATMENT OF HBV” (ASSEMBLY BIOSCIENCES, INC., priority 2020, published 2023).

As a reminder, the EC50 is the concentration giving half of the maximal effect.

Like-named read-outs stand apart in the source and are kept apart here.

This assay concerns HBV. Nature of the assay: Viral load production from HepAD38 cells, qPCR of the HBV core sequence in supernatant. It counts as cell-based. The conditions noted are these: HepAD38 cells, 5 days, HBV DNA in supernatant by qPCR, Table 1 ranges, read-out: Activity (viral load lowering EC50). The procedure:
HepAD38 cells grown in a T-150 flask (Corning, cat#: 430825) with Growth Medium (DMEM/F12 (1:1) (Hyclone, cat#: SH30023.02), 1X Pen/Strep (Invitrogen, cat#: 15140-122), 10% FBS (Tissue Culture Biologics, cat#: 101), 250 µg/mL G418 (Alfa Aesar, cat#: J62671), 1 µg/mL Tetracycline (Teknova, cat#: T3320)) were detached with 0.25% trypsin-EDTA (Invitrogen, cat#: 25200-056). Tetracycline-free treatment medium (15 mL DMEM/F12 (1:1) 1× Pen/step, with 2% FBS, Tet-system approved (Clontech, cat#: 631106) were then added to mix, transferred into a 50 ml conical tube (Falcon, cat#: 21008-918,) and spun at 1300 rpm for 5 min. Pelleted cells were then re-suspended/washed with 50 mL of 1X DPBS (Invitrogen, cat#: 14190-136) 2 times and 50 mL treatment medium twice. HepAD38 cells were then re-suspended with 10 mL of treatment medium, syringed and counted. Wells of 96-well clear bottom TC plate (Corning, cat#: 3904,) were seeded at 50.000 cells/well in 180 µL of treatment medium, and 20 µL of either 10% DMSO (Sigma, cat#: D4540) as controls or a 10X solution of test compounds in 10% DMSO in treatment media was added for a final compound concentration starting at 10 µM, and plates were incubated in 5% CO2 incubator at 37° C. for 5 days.
Subsequently viral load production was assayed by quantitative PCR (qPCR) of the HBV core sequence. PCR reaction mixture containing forward primers HBV-f 5′-CTGTGCCTTGGGTGGCTTT-3′ (IDT DNA), Reverse primers HBV-r 5′-[…]-3′ (IDT DNA), Fluorescent TaqMan^tm Probes HBV-probe 5′-FAM/AGCTCCAAA/ZEN/[…]/3IABkFQ-3′ (IDT DNA), 10 µL/well of PerfeCTa® qPCR ToughMix® (Quanta Biosciences, Cat#: 95114-05 K), and 6 µL/well of DEPC water (Alfa Aesar, cat#: J62087) was prepared. Four µL of supernatant was added to 16 µL of the reaction mixture in a qPCR plate (Applied Biosytems, Cat#: 4309849), sealed with a film (Applied Biosystems, Cat#: 4311971), centrifuged for a few seconds, and subsequently run on an Applied Biosystems VIIA7. The PCR mixture was incubated at 45° C. for 5 min, then 95° C. for 10 min, followed by 40 cycles of 10 seconds at 95° C. and 20 seconds at 60° C. Viral load was quantified against known HBV DNA standards by using ViiA™ 7 Software. Viral load in the supernatant from wells with treated cells were compared against viral load in supernatant from DMSO control wells (≥ 3 per plate). Cell viability assay was performed with CellTiter-Glo Luminescent Cell Viability Assay (Promega, cat#: G7573) with modification. Mixed appropriate amount of CellTiter-Glo (CTG) 1X DPBS in a 1:1 ratio, added 100 uL of the mixture to each well followed completely removal of all supernatant in each well without touching cell surface. Incubated the plate at room temperature for 10 min on an orbital shaker, and then read the plate with a plate reader (TECAN M1000 or Envision). EC50 or CC50 values were calculated through curve-fitting of the four-parameter nonlinear-logistic-regression model (GraphPad Prism or Dotmatics). CC50 values were all >10 µM.
A general note: Real-time PCR tracks product formation cycle by cycle.

Setting [1] is: Hepatitis B virus, HePAD38, 120 h.

For “3-Amino-N-(3-chloro-4-fluorophenyl)-5-(5-hydroxy-5-(1-methyl-1H-imidazol-4-yl)octahydropentalen-2-yl)-2λ^2-pyrazole-4-carboxamide [Example 20]”, the EC50 is under 10 nM.

Consider `Cn1nc(C2CC3CC(CNC(=O)C(C)(C)O)CC3C2)c(C(=O)Nc2ccc(F)c(Cl)c2)c1N` (single isomer, unassigned) [Example 39, 5-Amino-N-(3-chloro-4-fluorophenyl)-3-(5-((2-hydroxy-2-methylpropanamido)methyl)octahydropentalen-2-yl)-1-methyl-1H-pyrazole-4-carboxamide], for which, under setting [1], the EC50 is under 10 nM. On the same count and under the same terms, the result for `Cn1nc(C2CC3CC(CNC(=O)C4CC4)CC3C2)c(C(=O)Nc2ccc(F)c(Cl)c2)c1N` (single isomer, unassigned) [Example 40, 5-Amino-N-(3-chloro-4-fluorophenyl)-3-(5-(cyclopropanecarboxamidomethyl)octahydropentalen-2-yl)-1-methyl-1H-pyrazole-4-carboxamide] reads under 10 nM; that for `CN(C)C(=O)NCC1CC2CC(c3nn(C)c(N)c3C(=O)Nc3ccc(F)c(Cl)c3)CC2C1` (single isomer, unassigned) [Example 41, 5-Amino-N-(3-chloro-4-fluorophenyl)-3-(5-((3,3-dimethylureido)methyl)octahydropentalen-2-yl)-1-methyl-1H-pyrazole-4-carboxamide], under 10 nM. Take `Cn1nc(C2CC3CC(CNC(=O)C4CC4)CC3C2)c(C(=O)Nc2ccc(F)c(Cl)c2)c1N` (single isomer, unassigned) [Example 42, 5-Amino-N-(3-chloro-4-fluorophenyl)-3-(5-(cyclopropanecarboxamidomethyl)octahydropentalen-2-yl)-1-methyl-1H-pyrazole-4-carboxamide]: the EC50 was under 10 nM. Regarding `CN(C)C(=O)NCC1CC2CC(c3nn(C)c(N)c3C(=O)Nc3ccc(F)c(Cl)c3)CC2C1` (single isomer, unassigned) [Example 43, 5-Amino-N-(3-chloro-4-fluorophenyl)-3-(5-((3,3-dimethylureido)methyl)octahydropentalen-2-yl)-1-methyl-1H-pyrazole-4-carboxamide], the 50% effective concentration (EC50) was under 10 nM.

As to `Cn1nc(C2CC3CC(CNC(=O)C(C)(C)O)CC3C2)c(C(=O)Nc2ccc(F)c(Cl)c2)c1N` (single isomer, unassigned) [Example 44, 5-Amino-N-(3-chloro-4-fluorophenyl)-3-(5-((2-hydroxy-2-methylpropanamido)methyl)octahydropentalen-2-yl)-1-methyl-1H-pyrazole-4-carboxamide], the 50% effective concentration (EC50) is under 10 nM. Take `C[C@@H](NC(=O)C1CC2CC(c3nn(C)c(N)c3C(=O)Nc3ccc(F)c(Cl)c3)CC2C1)C(F)(F)F` (single isomer, unassigned) [Example 101]: the EC50 under setting [1] is 10 to 50 nM. In the case of `C[C@@H](NC(=O)C1CC2CC(c3nn(C)c(N)c3C(=O)Nc3ccc(F)c(Cl)c3)CC2C1)C(F)(F)F` (single isomer, unassigned) [Example 102], the EC50 lay in the range of 10 to 50 nM. Take `C[C@H](NC(=O)C1CC2CC(c3nn(C)c(N)c3C(=O)Nc3ccc(F)c(Cl)c3)CC2C1)C(F)(F)F` (single isomer, unassigned) [Example 103]: under setting [1], the 50% effective concentration (EC50) lay in the range of 10 to 50 nM.

Turning to `CC(NC(=O)N1CC2CC(c3nn(C)c(N)c3C(=O)Nc3ccc(F)c(Cl)c3)CC2C1)C(F)(F)F` (single isomer, unassigned) [Example 128, 5-(5-Amino-4-((3-chloro-4-fluorophenyl)carbamoyl)-1-methyl-1H-pyrazol-3-yl)-N-(1,1,1-trifluoropropan-2-yl)hexahydrocyclopenta[c]pyrrole-2(1H)-carboxamide], the EC50 under setting [1] is 50 to 500 nM. For the compound `CC(NC(=O)N1CC2CC(c3nn(C)c(N)c3C(=O)Nc3ccc(F)c(Cl)c3)CC2C1)C(F)(F)F` (single isomer, unassigned) [Example 129, 5-(5-Amino-4-((3-chloro-4-fluorophenyl)carbamoyl)-1-methyl-1H-pyrazol-3-yl)-N-(1,1,1-trifluoropropan-2-yl)hexahydrocyclopenta[c]pyrrole-2(1H)-carboxamide], the half-maximal effective concentration (EC50) was 50 to 500 nM.
